Data set [1] relates to A549. Nature of the data set: Induction of apoptosis in human A549 cells assessed as early apoptotic cells at 1 uM incubated for 48 hrs by annexin V-FITC and propidium iodide based flow cytometry analysis (Rvb =12.289%). The class given is functional. (In flow cytometry, cells or beads pass a laser one at a time.)
Data set [2] has as its system A549. Kind of data set: Induction of apoptosis in human A549 cells assessed as late apoptotic cells at 1 uM incubated for 48 hrs by annexin V-FITC and propidium iodide based flow cytometry analysis (Rvb =9.696%). The class given is functional.
The subject of data set [3] is A549. Kind of data set: Induction of cell cycle arrest in human A549 cells assessed as accumulation of cells at G0/G1 phase at 200 nM incubated for 48 hrs by propidium iodide staining based flow cytometry analysis (Rvb=61.61%). The class given is functional.
Data set [4] concerns A549. Kind of data set: Induction of cell cycle arrest in human A549 cells assessed as accumulation of cells at G0/G1 phase at 800 nM incubated for 48 hrs by propidium iodide staining based flow cytometry analysis (Rvb=61.61%). The class given is functional.
Data set [5] has as its target T1, Glutaminase liver isoform, mitochondrial (Homo sapiens, UniProt Q9UI32).
T1 sequence (Q9UI32 whole entry): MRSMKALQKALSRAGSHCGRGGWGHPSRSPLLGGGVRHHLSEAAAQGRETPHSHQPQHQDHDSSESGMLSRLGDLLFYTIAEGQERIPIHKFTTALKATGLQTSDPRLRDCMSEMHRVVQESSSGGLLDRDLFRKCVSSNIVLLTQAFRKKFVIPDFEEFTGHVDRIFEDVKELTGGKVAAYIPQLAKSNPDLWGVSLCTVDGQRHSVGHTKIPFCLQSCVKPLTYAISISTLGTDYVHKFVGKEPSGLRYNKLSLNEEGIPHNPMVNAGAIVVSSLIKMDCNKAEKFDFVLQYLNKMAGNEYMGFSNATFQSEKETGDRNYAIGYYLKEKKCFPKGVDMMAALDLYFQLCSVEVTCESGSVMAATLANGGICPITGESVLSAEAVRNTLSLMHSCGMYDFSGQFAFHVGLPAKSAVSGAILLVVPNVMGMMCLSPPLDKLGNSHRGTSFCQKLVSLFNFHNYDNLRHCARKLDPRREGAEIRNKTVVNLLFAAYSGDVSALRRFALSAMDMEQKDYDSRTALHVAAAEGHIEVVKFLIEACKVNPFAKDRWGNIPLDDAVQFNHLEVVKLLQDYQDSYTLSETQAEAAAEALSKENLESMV
Kind of data set: Inhibition of GLS2 (unknown origin).

The test system of data set [6] is A549. Nature of the data set: Induction of cell cycle arrest in human A549 cells assessed as accumulation of cells at G2/M phase at 400 nM incubated for 48 hrs by propidium iodide staining based flow cytometry analysis (Rvb=23.88%). The class given is functional.
Data set [7] is described as follows: Toxicity in human A549 cells xenografted in mouse assessed as body weight loss at 100 mg/kg administered via oral gavage for 28 days relative to control. The class given is organism-based. To be noted: in vivo, 672 h, time 28 day. A general note: In xenograft studies the graft and the host belong to different species.
The test system of another data set is HCT-116. Nature of the data set: Induction of intracellular ROS production in human HCT-116 cells by DCFH-DA staining based fluorescence microscopic analysis. The class given is functional, cell-based. To be noted: dose 1-10 µM.
For the next data set, the species on record is Homo sapiens. Nature of the data set: Selectivity ratio of IC50 for GLS2 (unknown origin) to IC50 for GLS1 (unknown origin).
Data set [8] deals with A549. Nature of the data set: Induction of cell cycle arrest in human A549 cells assessed as accumulation of cells at G0/G1 phase at 50 nM incubated for 48 hrs by propidium iodide staining based flow cytometry analysis (Rvb=61.61%). The class given is functional.
Data set [9] concerns A549. Nature of the data set: Induction of intracellular ROS production in human A549 cells by DCFH-DA staining based fluorescence microscopic analysis. The class given is functional, cell-based. The conditions noted are these: dose 1-10 µM.
Data set [10] deals with A549. Nature of the data set: Induction of cell cycle arrest in human A549 cells assessed as accumulation of cells at S phase at 100 nM incubated for 48 hrs by propidium iodide staining based flow cytometry analysis (Rvb=14.51%). The class given is functional.

Take `CCCCCCN1CCC(CNC(=O)c2cccc(COCCC3CCN(c4nnc(NC(=O)Cc5ccccc5)s4)CC3)c2)CC1`: the Activity was 14.845% in the data set with A549 [1]; 7.018% with A549 [2]; 66.93% with A549 [3]; 68.55% with A549 [4]; 18.77% in the data set with A549 [6]; “Non-Toxic” in data set [7]. Moreover, the Activity result is “Dose-Dependent Effect” with HCT-116, 62.73% in the data set with A549 [8], “Dose-Dependent Effect” in the data set with A549 [9] and 17.76% with A549 [10]. The half-inhibitory concentration (IC50) in data set [5] was more than 15 µM. In the data set filed under Homo sapiens, the Ratio IC50 is more than 100.

For orientation: IC50 means the concentration that inhibits the measured activity by half.
